Assay [1] deals with Jurkat cell migration across TNFα-stimulated HUVEC. Description: Jurkat transmigration across TNFα-stimulated HUVEC monolayer. Conditions: at 24 h; 1 mg/mL of antagonist; Figure 2B,C. In kind it is cell-based, human. How it is done:
Figure 2 Inhibitory effects of visabron c (4–4) on adhesion (A) and transmigration (B, C) of Jurkat cells through the monolayer of TNFα-activated HUVEC. (A) HUVEC were cultured on 96 well plates to 90% confluence in EGM-2 complete media. TNF-α (10 ng/mL) was added to each well for 16 h. Jurkat cells were labeled with calcein-AM ([…]) by 1 h incubation at 37 °C. After three washes, Jurkat cells (1 × 10^5 cells per mL) were mixed with appropriate concentrations of visabron or 10 μM visabres (inset) in EGM-2 media without FBS and supplements (growth factors) and incubated for 15 min at room temperature. […] Cell cultures extracts were measured using the fluorescence plate reader. […] Chambers were incubated at 37 °C, and measurement of fluorescence was performed at the indicated time points using a fluorescence plate reader with a set up bottom measurement option and using FITC filters. […]
trans-Endothelial leukocyte migration was assessed as follows: HUVEC cells were plated onto collagen type IV (5 μg/mL) coated polycarbonate inserts (Transwell, Costar, Cambridge, MA; diameter, 6.5 mm; pore size, 8 μm for a 24-well plate) in serum-containing endothelial cell growth medium and allowed to grow to confluence over 72 h. […] The medium and all washes were pooled, and the fluorescence in each well was quantified with a SPECTRAFluor Plus plate reader at λex = 485 nm and λem = 530 nm. […]

In assay [2] the test system is U937 macrophages-VCAM-1 (α4β1, αMβ2, α3β1, α6β1). Description: Adhesion of U937 macrophages to immobilized VCAM-1. In kind it is cell-based, human. As for the experimental part: Cell adhesion assay was carried out as previously described[47] with minor modifications. The day before the experiment, each well was coated with VCAM-1 (3 mg/mL) immobilized on the 96-well plate in PBS by overnight incubation at 4 °C. Thereafter, nonspecific binding was blocked by incubating the wells with 1% (w/v) bovine serum albumin (BSA) in Hank’s Balanced Salt Solution (HBSS) containing 5 mM MgCl2 at room temperature for 1 h before use. The cells were labeled by incubation with 12.5 μM 5-chloromethylfluorescein diacetate (CMFDA) in HBSS without 1% BSA at 37 °C for 30 min. The labeled cells were then centrifuged at 1000 rpm and washed twice with HBSS containing 1% BSA to remove excess CMFDA. Labeled cells (about 1 × 10^5 cells/well) were plated on each well in the presence or absence of visabrons and incubated at 37 °C for 60 min. Unbound cells were removed by washing the wells three times with 1% (w/v) BSA in HBSS, and bound cells were lysed by the addition of 0.5% Triton X-100 (diluted in DDW). The fluorescence in each well was quantified with a SPECTRAFluor Plus plate reader (Tecan), at λex = 485 nm and λem = 530 nm. To determine the number of adhered cells from the fluorescence values, a standard curve was generated by serial dilution of known numbers of CMFDA-labeled cells.

[3] abbreviates: U937 treated with PMA (10 ng/mL) for 24 h, read-out: IC50 U937 macrophages-VCAM-1 PMA.
Where [4] appears, read: untreated U937, read-out: IC50 U937 macrophages-VCAM-1 control.

Where two headings read alike, the source gives them in different places. Numbered stars: 1 amine (or outer) side, 2 acyl side, 3 side chain; on linkers, the order of the positions; unused ones are H or OH. Bridge positions count the residues as written; N and C are the ends. Square brackets hold non-standard residues; d marks the D form. Peptide text beside a SMILES is read from it. N(2-Aminoethyl)Gly = O=C(CN(CCN[*:3])[*:1])[*:2]; CO = O=C([*:1])[*:2]; Nlys = NCCCCNCC(=O)O

Turning to “natalizumab: clinical-grade monoclonal antibody anti-α4β1 produced by Biogen Co. [reference compound]”, in assay [1], the “Inhibition of Jurkat migration across TNFα-stimulated HUVEC” value is reported as “similar”.

Turning to `CSCC[C@@H]1NC(=O)[C@H]([C@@H](C)O)NC(=O)CN(C(=O)[C@@H](N)CCCCN)CCNC(=O)NCCN(CC(=O)N[C@@H](CC(C)C)C(N)=O)C(=O)[C@H](CC(=O)O)NC(=O)[C@H](CC(C)C)NC1=O` [visabron c (2–2)] (H-K[N(2-Aminoethyl)Gly]TMLD[N(2-Aminoethyl)Gly]L-NH2; linker 2-7 via CO), the IC50 stood at 16 µM in assay [2] (setting [3]) and 53 µM in assay [2] (setting [4]).

`CSCC[C@@H]1NC(=O)[C@H]([C@@H](C)O)NC(=O)CN(C(=O)[C@@H](N)CCCCN)CCCCNC(=O)NCCCCN(CC(=O)N[C@@H](CC(C)C)C(N)=O)C(=O)[C@H](CC(=O)O)NC(=O)[C@H](CC(C)C)NC1=O` [visabron c (4–4)] (H-K[Nlys]TMLD[Nlys]L-NH2; linker 2-7 via CO): the IC50 in assay [2] (setting [3]) was found to be 10 µM; in assay [2] (setting [4]), 11 µM.

The values are drawn from publication PMC8717366, “Synthesis and Pharmacological Characterization of Visabron, a Backbone Cyclic Peptide Dual Antagonist of α4β1 (VLA-4)/α9β1 Integrin for Therapy of Multiple Sclerosis” (JACS Au, 2021).
